Converted amounts (≈) assume the structure as drawn.
Assays:
Format in all cases: functional
Pseudomonas aeruginosa = test: Antibacterial activity against Pseudomonas aeruginosa ATCC 9027 after 24 hrs by broth microdilution method; details: ATCC 9027, 24 h
Staphylococcus aureus = test: Antibacterial activity against Staphylococcus aureus ATCC 6538 after 24 hrs by broth microdilution method; details: ATCC 6538, 24 h
Mus musculus = test: Antiinflammatory activity against corton oil-induced ear edema in mouse

Structure (SMILES) | MIC (Pseudomonas aeruginosa) | MIC (Staphylococcus aureus) | MBC (Pseudomonas aeruginosa) | MBC (Staphylococcus aureus) | ID50 (Mus musculus)
CC(=O)/C=C/[C@@]1(O)[C@H](C)C[C@H](O[C@@H]2O[C@H](CO[C@@H]3OC[C@](O)(CO)[C@H]3O)[C@@H](O)[C@H](O)[C@H]2O)CC1(C)C | > 20 µg/mL | 4 µg/mL (≈ 7.68 µM) |  |  | 
CC(C)O[C@@H]1O[C@H](CO[C@@H]2OC[C@](O)(CO)[C@H]2O)[C@@H](O)[C@H](O)[C@H]1O | > 20 µg/mL | > 20 µg/mL |  |  | 
CC(C)(O)[C@@H]1CC[C@]2(C)[C@@H](O[C@@H]3O[C@H](CO)[C@@H](O)[C@H](O)[C@H]3O)C[C@@H](O)[C@](C)(O)[C@H]2C1 | 4 µg/mL (≈ 9.21 µM) | 2 µg/mL (≈ 4.6 µM) | 4 µg/mL (≈ 9.21 µM) | 4 µg/mL (≈ 9.21 µM) | 
COc1ccc2c(c1)c(CC(=O)O)c(C)n2C(=O)c1ccc(Cl)cc1 [INDOMETHACIN] |  |  |  |  | 93 microg/cm2

Source: ChEMBL document CHEMBL1144756, “Isoprenoid glycosides from Liriosma ovata” (2008)
